Results published in US20080039528A1, “Zinc finger ejectors and methods of use thereof” (KANSAS STATE UNIVERSITY RESEARCH FOUNDATION, priority 2004, published 2008).
Where two headings read alike, the source gives them in different places.

Columns and labels:
P. falciparum W2 = assay: Inhibition of the growth of P. falciparum W2 clone ([3H]-hypoxanthine uptake); format: cell-based, Plasmodium falciparum; conditions: for IC50: read-out: W2, IC50; for IC90: read-out: W2, IC90
Experimental: (§1) Inhibition of the growth of P. falciparum. A reported method for the inhibition of the growth of P. falciparum was followed. The incubation period of the parasites was 66 h and the starting parasitemia was 0.2% with a 1% hematocrit. The medium used was RPMI-1640 culture medium with no folate or p-aminobenzoic acid and 10% normal heat-inactivated human plasma, and P. falciparum D6 and W2 clones were used. D6 is a clone from the Sierra I/UNC isolates and is susceptible to chloroquine and pyrimethamine but has reduced susceptibilities to mefloquine and halofantrine. W2 is a clone of the Indochina I isolate and is resistant to chloroquine and pyrimethamine but susceptible to mefloquine. […] The diluted compounds were transferred ([…]) to test plates, 200 µL of parasitized erythrocytes (0.2% parasitemia and 1% hematocrit) was added, and was incubated at 37° C. in a controlled environment of 5% CO2, 5% O2, and 90% N2. After 42 h, 25 µL of [^3H]-hypoxanthine was added and the plates were incubated for an additional 24 h. The plates were then frozen at −70° C. to lyse the red cells and later thawed and harvested onto glass fiber filter mats by using a 96-well cell harvester. The filter mats were counted in a scintillation counter and the data were downloaded with the custom, automated analysis software developed by WRAIR. For each compound, the concentration-response profile was determined and 50% inhibitory concentrations (IC50) were determined by using a nonlinear, logistic dose-response analysis program.

P. falciparum D6 = assay: Inhibition of the growth of P. falciparum D6 clone ([3H]-hypoxanthine uptake); format: cell-based, Plasmodium falciparum; conditions: for inhibitory activities (in words): P. falciparum D6 and W2 and L. donovani parasites, summary statement; for IC50: read-out: D6, IC50; for IC90: read-out: D6, IC90
Experimental: as §1

[1] = tested on: L. donovani axenic amastigote-like parasites; assay: Inhibition of the growth of L. donovani axenic amastigotes (3-day CellTiter 96 assay); format: cell-based, Leishmania donovani; conditions: 3-day assay
Experimental: Inhibition of the growth of L. donovani parasites. A reported method for the inhibition of the growth of L. donovani parasites was followed. L. donovani axenic amastigotes were maintained in modified RPMI medium as previously described. Inhibition of growth by the compounds was measured in a 3-day assay using the tetrazolium dye-based CellTiter 96 Aqueous Non-Radioactive Cell Proliferation Assay Kit (Promega, Madison, Wis., USA) as previously described. The known anti-leishmaniasis drug, pentamidine, was used as a control.

Solubility (qualitative) = format: physicochemical
[2] = Plasmodium falciparum, W2, 66 h, P. falciparum W2 intraerythrocytic forms, 66 h incubation
[3] = Plasmodium falciparum, D6, 66 h, P. falciparum D6 intraerythrocytic forms, 66 h incubation
[4] = P. falciparum W2 intraerythrocytic forms, 66 h incubation
[5] = P. falciparum D6 intraerythrocytic forms, 66 h incubation
[6] = Plasmodium falciparum, P. falciparum W2 intraerythrocytic forms, 66 h incubation
[7] = Plasmodium falciparum, W2, 66 h
[8] = Plasmodium falciparum, D6, 66 h

| SMILES | IC50 (P. falciparum W2; [2]) [nM] | inhibitory activities (in words) (P. falciparum D6) | IC50 (P. falciparum D6; [3]) [nM] | IC50 (P. falciparum W2; [4]) [nM] | IC50 (P. falciparum D6; [5]) [nM] | also measured |
| --- | --- | --- | --- | --- | --- | --- |
| O=C(O)c1ccc(OCCCCCOc2ccc(C(=O)O)cc2)cc1 [Biscarboxylic acid 6, 1,5-Bis-[4-(hydroxycarbonyl)phenoxy]pentane] | > 60000 | do not show inhibitory activities | > 60000 | – | – | – |
| O=C(O)c1ccc(OC/C=C/COc2ccc(C(=O)O)cc2)cc1 [Biscarboxylic acid 8, trans-1,4-Bis-[4-(hydroxycarbonyl)phenoxy]-2-butene] | > 60000 | do not show inhibitory activities | > 60000 | – | – | – |
| O=C(O)c1ccc(OCCOCCOc2ccc(C(=O)O)cc2)cc1 [Biscarboxylic acid 10, 2,2′-Bis-[(4-hydroxycarbonyl)phenoxy]ethyl ether] | – | do not show inhibitory activities | – | > 38000 | > 38000 | IC50 [1]: > 100000 nM |
| COC(=O)c1ccc(OCCCCCOc2ccc(C(=O)OC)cc2)cc1 [Bisester 5, 1,5-Bis-(4-methoxycarbonylphenoxy)pentane] | > 60000 | do not show inhibitory activities | > 60000 | – | – | – |
| COC(=O)c1ccc(OC/C=C/COc2ccc(C(=O)OC)cc2)cc1 [Bisester 7, trans-1,4-Bis-(4-methoxycarbonylphenoxy)-2-butene] | > 60000 | do not show inhibitory activities | > 60000 | – | – | – |
| COC(=O)c1ccc(OCCOCCOc2ccc(C(=O)OC)cc2)cc1 [Bisester 9, 2,2′-Bis-(4-methoxycarbonylphenoxy)ethyl ether] | – | do not show inhibitory activities | – | > 60000 | > 60000 | IC50 [1]: > 100000 nM |
| O=C(NO)c1ccc(OCCCCCOc2ccc(C(=O)NO)cc2)cc1 [Bishydroxamic acid 1, 1,5-Bis-[4-(hydroxyaminocarbonyl)phenoxy]pentane] | – | – | – | 3200 | 2200 | IC90 (P. falciparum D6; [5]): 6200 nM |
| O=C(NO)c1ccc(OC/C=C/COc2ccc(C(=O)NO)cc2)cc1 [Bishydroxamic acid 2, trans-1,4-Bis[4-(hydroxyaminocarbonyl)phenoxy]-2-butene] | 1050 | – | 690 | – | – | IC90 (P. falciparum W2; [6]): 2570 nM; IC90 (P. falciparum D6; [3]): 1800 nM |
| O=C(NO)c1ccc(OCCOCCOc2ccc(C(=O)NO)cc2)cc1 [Bishydroxamic acid 3, 2,2′-Bis-[(4-hydroxyaminocarbonyl)phenoxy]ethyl ether] | – | – | – | 350 | 240 | IC90 (P. falciparum W2; [4]): 600 nM; IC50 [1]: 18500 ± 6000 nM; IC90 (P. falciparum D6; [5]): 470 nM; solubility in DMSO (Solubility (qualitative); DMSO): soluble in DMSO; solubility in water (Solubility (qualitative)): only slightly soluble in water |
| O=C([N-]O)c1ccc(OCCCCCOc2ccc(C(=O)[N-]O)cc2)cc1.[Na+].[Na+] [Bishydroxamic acid sodium salt 11, 1,5-Bis-[4-(hydroxy-sodio-aminocarbonyl)phenoxy]pentane] | – | – | – | 1090 | 1000 | IC90 (P. falciparum D6; [5]): 2000 nM; solubility in water (Solubility (qualitative)): soluble in water |
| O=C([N-]O)c1ccc(OCCOCCOc2ccc(C(=O)[N-]O)cc2)cc1.[Na+].[Na+] [Bishydroxamic acid sodium salt 12, 2,2′-Bis-[(4-hydroxy-sodio-aminocarbonyl)phenoxy]ethyl ether] | – | – | – | 360 | 260 | IC90 (P. falciparum W2; [4]): 600 nM; IC50 [1]: 37400 ± 14000 nM; IC90 (P. falciparum D6; [5]): 520 nM; solubility in water (Solubility (qualitative)): soluble in water |
| CCN(CC)CCCC(C)Nc1ccnc2cc(Cl)ccc12 (centres unmarked) [Chloroquine, reference compound] | – | – | – | – | – | IC50 (P. falciparum W2; [7]): 450 nM; IC90 (P. falciparum W2; [7]): 650 nM; IC50 (P. falciparum D6; [8]): 13 nM; IC90 (P. falciparum D6; [8]): 14 nM |
| OC(c1cc(C(F)(F)F)nc2c(C(F)(F)F)cccc12)C1CCCCN1 (centres unmarked) [Mefloquine, reference compound] | – | – | 13 | – | – | IC50 (P. falciparum W2; Plasmodium falciparum, W2, P. falciparum W2, value in nM): 8 nM; IC90 (P. falciparum W2; [6]): 15 nM; IC90 (P. falciparum D6; [3]): 240 nM |
| N=C(N)c1ccc(OCCCCCOc2ccc(C(=N)N)cc2)cc1 [Pentamidine, reference compound] | – | – | – | – | – | IC50 ([1]; Leishmania donovani, 72 h): 1190 ± 120 nM |
